Assay results as given in patent US5229410A, “6-substituted-hexahydrobenz[cd]indoles” (Eli Lilly and Company, priority 1991, dated 1993).
Where two headings read alike, the source gives them in different places.

How the values were obtained:
[1] = biological target: T1, central 5-HT1D binding sites (Bos taurus, UniProt F1MGM3); experiment: 5-HT1D binding ([3H]5-HT displacement, bovine caudate nuclei membranes)
T1 construct: Bovine brains were obtained from Pel-Freeze Biologicals, and the caudate nuclei were dissected out; tissue Pel-Freeze Biologicals; host or cells: bovine caudate nuclei (washed membranes)
T1 sequence (F1MGM3 1-403): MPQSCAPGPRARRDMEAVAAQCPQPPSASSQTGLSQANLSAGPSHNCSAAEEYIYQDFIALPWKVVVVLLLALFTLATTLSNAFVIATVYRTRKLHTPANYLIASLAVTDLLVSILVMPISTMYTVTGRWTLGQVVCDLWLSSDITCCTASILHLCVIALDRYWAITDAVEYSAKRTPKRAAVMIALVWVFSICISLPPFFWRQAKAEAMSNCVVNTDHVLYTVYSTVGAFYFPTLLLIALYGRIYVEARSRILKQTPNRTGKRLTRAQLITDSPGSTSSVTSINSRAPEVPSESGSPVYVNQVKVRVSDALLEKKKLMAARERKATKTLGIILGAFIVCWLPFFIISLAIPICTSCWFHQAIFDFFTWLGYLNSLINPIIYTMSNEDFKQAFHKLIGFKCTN
Protocol: The affinities of the compounds at the central 5-HT1D binding sites were determined using a modification of the binding assay described by Heuring and Peroutka (J. Neurosci. 7:894-903, 1987). Bovine brains were obtained from Pel-Freeze Biologicals, and the caudate nuclei were dissected out and frozen at -70° C. until the time that the membranes were prepared for the binding assays. At that time the tissues were homogenized in 40 volumes of ice-cold Tris-HCl buffer (50 mM, pH 7.4 at 22° C.) with a Techmar Tissumizer (setting 65 for 15 sec), and the homogenate was centrifuged at 39,800 g for 10 min. The resulting pellet was then resuspended in the same buffer, and the centrifugation and resuspension process was repeated three additional times to wash the membranes. Between the second and third washes the resuspended membranes were incubated for 10 min at 37° C. to facilitate the removal of endogenous 5-HT. The final pellet was resuspended in Tris buffer to a concentration of 25 mg of original tissue wet weight/ml for use in the binding assay. […] The assay tubes were incubated for 10 min at 37° C., and the contents were then rapidly filtered through GF/B filters (pretreated with 0.5% polyethylenimine), followed by four one-mL washes with ice-cold buffer. The radioactivity trapped by the filters was quantitated by liquid scintillation spectrometry, and specific [^3 H]5-HT binding to the 5-HT1D sites was defined as the difference between [^3 H]5-HT bound in the presence and absence of 10 μM 5-HT.
The affinities of compounds at the 5-HT1D receptor are expressed as IC50 values, i.e., the concentration required to inhibit 50% of the binding. These values were determined from 12-point competition curves using nonlinear regression (SYSTAT, SYSTAT, Inc., Evanston, Ill.).

central 5-HT1A receptors = biological target: T2, central 5-HT1A receptors (Rattus norvegicus, UniProt P19327); experiment: 5-HT1A receptor binding ([3H]8-OH-DPAT displacement, rat hippocampal membranes); design: species or system male Sprague-Dawley rats
T2 construct: the brains were rapidly chilled and dissected to obtain the hippocampi; from tissue; host or cells: hippocampus of male Sprague-Dawley rats (washed membranes)
T2 sequence (P19327 1-422): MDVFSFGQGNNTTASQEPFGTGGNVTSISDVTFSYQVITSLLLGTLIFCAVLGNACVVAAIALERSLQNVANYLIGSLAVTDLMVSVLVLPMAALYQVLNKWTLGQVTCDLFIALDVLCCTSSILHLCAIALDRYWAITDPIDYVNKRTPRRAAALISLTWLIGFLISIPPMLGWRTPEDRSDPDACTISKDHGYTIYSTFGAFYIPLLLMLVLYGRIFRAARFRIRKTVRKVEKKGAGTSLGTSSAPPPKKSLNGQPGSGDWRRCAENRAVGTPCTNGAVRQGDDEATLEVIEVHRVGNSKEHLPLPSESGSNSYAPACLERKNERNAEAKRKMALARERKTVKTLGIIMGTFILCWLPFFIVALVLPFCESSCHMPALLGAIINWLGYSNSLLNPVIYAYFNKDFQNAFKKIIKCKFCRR
Protocol: The affinities of the compounds at the central 5-HT1A receptors were determined using a modification of the binding assay described by Taylor, et al., (J. Pharmacol. Exp. Ther. 236:118-125, 1986). Membranes for the binding assay were prepared from male Sprague-Dawley rats (150-250 g). The animals were killed by decapitation, and the brains were rapidly chilled and dissected to obtain the hippocampi. The hippocampi were either prepared that day or stored frozen (-70° C.) until the day of preparation. Membranes were prepared by homogenizing the tissue in 40 volumes of ice-cold Tris-HCl buffer (50 mM, pH 7.4 at 22° C.) using a Techmar Tissumizer (setting 65 for 15 sec), and the homogenate was centrifuged at 39800×g for 10 min. The resulting pellet was then resuspended in the same buffer, and the centrifugation and resuspension process was repeated three additional times to wash the membranes. Between the second and third washes the resuspended membranes were incubated for 10 min at 37° C. to facilitate the removal of endogenous ligands. The final pellet was resuspended in 67 mM Tris-HCl, pH 7.4, to a concentration of 2 mg of tissue original wet weight/200 μl. This homogenate was stored frozen (-70° C.) until the day of the binding assay. […] The assay tubes were incubated for 10 min at 37° C., and the contents were then rapidly filtered through GF/B filters (pretreated with 0.5% polyethylenimine), followed by four one-mL washes with ice cold buffer. The radioactivity trapped by the filters was quantitated by liquid scintillation spectrometry, and specific [^3 H]8-OH-DPAT binding to the 5-HT1A sites was defined as the difference between [^3 H]8-OH-DPAT bound in the presence and absence of 10 μM 5-HT.
The affinity of the particular compound at the 5-HT1A receptor is expressed as IC50 value, i.e., the concentration required to inhibit 50% of the binding. The IC50 values were determined from 12-point competition curves using nonlinear regression (SYSTAT, SYSTAT, INC., Evanston, Ill.).

Brain 5-hydroxyindoles = experiment: brain 5-hydroxyindoles in vivo after subcutaneous injection; design: species or system male albino rats; conditions: 1 hour, * = P<0.05 vs control
Protocol: (§1) Certain compounds were evaluated to determine their ability to affect the 5-hydroxyindoles serotonin, 5-hydroxyindole acetic acid (5HIAA) and serum corticosterone, in vivo, using the following procedures.
(§2) Compounds in aqueous solution were injected subcutaneously into male albino rats. Rats were decapitated one hour later. Trunk blood was collected and allowed to clot; after centrifugation, serum was stored frozen prior to analysis. Whole brain was removed and frozen on dry ice, then stored frozen prior to analysis. Serum corticosterone concentration was measured spectrofluorometrically (J. H. Solem and T. Brinch-Johnsen, "An evaluation of a method for determination of free corticosteroids in minute quantities of mouse plasma," Scand. J. Clin. Lab. Invest. (Suppl. 80), 1.14 (1965).) 5-Hydroxyindoleacetic acid (5HIAA) concentration in whole brain was measured by liquid chromatography with electrochemical detection. (Ray W. Fuller and Kenneth W. Perry, "Effects of buspirone and its metabolite, 1-(2-pyrimidinyl)piperazine, on brain monoamines and their metabolites in rats", J. Pharmacol. Exp. Ther. 248, 50-56 (1989).) The results are provided in Table III.

serum corticosterone = serum corticosterone in vivo after subcutaneous injection; design: species or system male albino rats; conditions: 1 hour, * = P<0.05 vs control
Protocol: as §1, §2

[2] = [3H]5-HT 1.7-1.9 nM, bovine caudate, 8-OH-DPTA and mesulergine 100 nM as masks, pH 7.4, 37° C., 10 min, read-out: 5HT1D IC50 (concentration required to inhibit 50% of the binding)
[3] = [3H]8-OH-DPAT 1.0 nM, rat hippocampi, pH 7.4, 37° C., 10 min, read-out: 5HT1A IC50 (concentration required to inhibit 50% of the binding)

Structure (SMILES) | IC50 [1] [nM] | IC50 (central 5-HT1A receptors) [nM] | Brain 5-HIAA (Brain 5-hydroxyindoles; 0.003 mg/Kg s.c.) [n moles/g] | Brain serotonin (Brain 5-hydroxyindoles; 0.003 mg/Kg s.c.) [n moles/g] | Brain 5-HIAA (Brain 5-hydroxyindoles; 0.03 mg/Kg s.c.) [n moles/g] | Brain serotonin (Brain 5-hydroxyindoles; 0.03 mg/Kg s.c.) [n moles/g] | Brain 5-HIAA (Brain 5-hydroxyindoles; 0.3 mg/Kg s.c.) [n moles/g] | Brain serotonin (Brain 5-hydroxyindoles; 0.3 mg/Kg s.c.) [n moles/g] | IC50 [1, 2] [nM] | IC50 (central 5-HT1A receptors; [3]) [nM] | Serum Corticosterone (serum corticosterone; 0.003 mg/Kg s.c.) [μg/100 ml] | Serum Corticosterone (serum corticosterone; 0.03 mg/Kg s.c.) [μg/100 ml] | Serum Corticosterone (serum corticosterone; 0.3 mg/Kg s.c.) [μg/100 ml]
CCCN(CCC)[C@H]1Cc2c(C(C)=O)ccc3c2[C@@H](CN3)C1 (relative stereo) [Example 3, 6-acetyl-4-(di-n-propylamino)-1,2,2a,3,4,5-hexahydrobenz[cd]indole] | 7.47 | 0.63 |  |  |  |  |  |  |  |  |  |  | 
CCCN(CCC)C1Cc2c(C(=O)C(C)C)ccc3c2C(CN3)C1 (single isomer, unassigned; (-)) [Example 9, (-)-6-(2-methylpropanoyl)-4-(di-n-propylamino)-1,2,2a,3,4,5-hexahydrobenz[cd]indole] |  |  | 1.68 ± 0.10 | 1.83 ± 0.08 | 1.91 ± 0.06 | 1.90 ± 0.10 | 1.74 ± 0.04 | 1.69 ± 0.06 | 3130 | 54.9 | 4.1 ± 0.5 | 6.0 ± 1.6 | 6.7 ± 2.0
CCCN(CCC)[C@H]1Cc2c(C(C)=O)ccc3c2[C@H](CN3)C1 [Example 4, (2aR,4R)-6-acetyl-4-(di-n-propylamino)-1,2,2a,3,4,5-hexahydrobenz[cd]indole] |  |  |  |  |  |  |  |  | 236 | 0.8 |  |  | 
CCCN(CCC)[C@@H]1Cc2c(C(C)=O)ccc3c2[C@@H](CN3)C1 [Example 5, (2aS,4S)-6-acetyl-4-(di-n-propylamino)-1,2,2a,3,4,5-hexahydrobenz[cd]indole] |  |  |  |  |  |  |  |  | 129 | 0.31 |  |  | 
CCCN(CCC)[C@H]1Cc2c(C(C)=O)ccc3c2[C@@H](CN3)C1 [Example 6, (+)-(2aS,4R)-6-acetyl-4-(di-n-propylamino)-1,2,2a,3,4,5-hexahydrobenz[cd]indole] |  |  | 1.81 ± 0.14 | 2.46 ± 0.14 | 1.58 ± 0.08 | 2.99 ± 0.06 | 1.41 ± 0.03 | 3.08 ± 0.04 | 6.25 | 0.3 | 5.8 ± 1.0 | 10.6 ± 2.0 | 42.2 ± 1.1
CCCN(CCC)[C@@H]1Cc2c(C(C)=O)ccc3c2[C@H](CN3)C1 [Example 7, (-) (2aR,4S)-6-acetyl-4-(di-n-propylamino)-1,2,2a,3,4,5-hexahydrobenz[cd]indole] |  |  | 2.06 ± 0.13 | 2.75 ± 0.05 | 1.87 ± 0.07 | 2.57 ± 0.10 | 1.77 ± 0.17 | 2.85 ± 0.08 | 8500 | 6.61 | 3.8 ± 0.5 | 6.5 ± 2.6 | 8.4 ± 4.0
CCCN(CCC)[C@H]1Cc2c(C(=O)C(C)C)ccc3c2[C@@H](CN3)C1 [Example 8, (+)-(2aS,4R)-6-(2-methylpropanoyl)-4-(di-n-propylamino)-1,2,2a,3,4,5-hexahydrobenz[cd]indole] |  |  | 1.56 ± 0.10 | 1.88 ± 0.05 | 1.34 ± 0.06 | 2.26 ± 0.06 | 1.30 ± 0.07 | 2.26 ± 0.16 | 1.24 | 0.25 | 3.6 ± 0.7 | 27.1 ± 6.4 | 42.0 ± 0.4
CCCN(CCC)[C@@H]1Cc2c(C(=O)CC)ccc3c2[C@H](CN3)C1 [Example 10, (-)-(2aR,4S)-6-(propanoyl)-4-(di-n-propylamino)-1,2,2a,3,4,5-hexahydrobenz[cd]indole] |  |  |  |  |  |  |  |  | 9000 | 9.47 |  |  | 
CCCN(CCC)[C@H]1Cc2c(C(=O)c3ccccc3)ccc3c2[C@@H](CN3)C1 [Example 12, (+)-(2aS,4R)-6-(benzoyl)-4-(di-n-propylamine)-1,2,2a,3,4,5-hexahydrobenz[cd]indole] |  |  |  |  |  |  |  |  | 1.78 | 0.34 |  |  | 
CCCN(CCC)[C@H]1Cc2c(C(=O)Cc3ccccc3)ccc3c2[C@@H](CN3)C1 [Example 13, (+)-(2aS,4R)-6-(2-phenylethanoyl)-4-(di-n-propylamino)-1,2,2a,3,4,5-hexahydrobenz[cd]indole] |  |  |  |  |  |  |  |  | 2.7 | 0.98 |  |  | 
